PubChem BioAssay AID2060610 (Molecular Pharmacology Branch, DTP, NCI, 2025)
Where “and” joins values, the source holds several entries; their conditions need not be identical. Equal values may be shown once.

Tested on: 616215-338-R-J1-PDC complex spheroids, viability % test/control
Assay: Anticancer human tumor 616215-338-R-J1-PDC patient-derived colon adenocarcinoma cell line growth inhibition [CLK]
Conditions: for viability, T/C: stronger effect = lower value
Outline: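 Patient-derived tumor cells grown as complex spheroids with HUVEC endothelial cells and mesenchymal stem cells, treated with drug combinations. Concentrations descend in half-log steps from near clinical Cmax, or from 10 microM if Cmax unknown.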

[1] = curve of first compound, second compound 0.0316 µM
[2] = curve of first compound, second compound 0.1 µM
[3] = curve of first compound, second compound 0.316 µM
[4] = curve of first compound, second compound 1 µM
[5] = curve of first compound, second compound 3.16 µM
[6] = curve of first compound, second compound 10 µM
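Further: spheroids exposed to agents for 7 days.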
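Wherever viability, T/C is given: 100% = DMSO vehicle wells.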

Which results are given for `CCCS(=O)(=O)Nc1ccc(F)c(C(=O)c2c[nH]c3ncc(-c4ccc(Cl)cc4)cc23)c1F` + CNC(=O)c1ccc(Nc2nc(OC3CCCC3)c3c(-c4ccc5nc(C)oc5c4)c[nH]c3n2)c(OC)c1?
IC50 [1]: 6930 nM; IC50 [2]: 698 nM; IC50 [3]: < 31.6 nM; IC50 [4]: < 31.6 nM; IC50 [5]: < 31.6 nM; IC50 [6]: < 31.6 nM; viability, T/C (second compound 0.0316 µM, first compound 0.0316 µM): 94.6%; viability, T/C (second compound 0.0316 µM, first compound 0.1 µM): 102%; viability, T/C (second compound 0.0316 µM, first compound 0.316 µM): 98.9%; viability, T/C (second compound 0.0316 µM, first compound 1 µM): 89.9%; viability, T/C (second compound 0.0316 µM, first compound 3.16 µM): 93.8%; viability, T/C (second compound 0.0316 µM, first compound 10 µM): 29.6%; viability, T/C (second compound 0.1 µM, first compound 0.0316 µM): 55%; viability, T/C (second compound 0.1 µM, first compound 0.1 µM): 62.2%; viability, T/C (second compound 0.1 µM, first compound 0.316 µM): 44.3%; viability, T/C (second compound 0.1 µM, first compound 1 µM): 53.6%; viability, T/C (second compound 0.1 µM, first compound 3.16 µM): 34.6%; viability, T/C (second compound 0.1 µM, first compound 10 µM): 13%; viability, T/C (second compound 0.316 µM, first compound 0.0316 µM): 42.4%; viability, T/C (second compound 0.316 µM, first compound 0.1 µM): 37.1%; viability, T/C (second compound 0.316 µM, first compound 0.316 µM): 39.7%; viability, T/C (second compound 0.316 µM, first compound 1 µM): 41.5%; viability, T/C (second compound 0.316 µM, first compound 3.16 µM): 27%; viability, T/C (second compound 0.316 µM, first compound 10 µM): 14.8%; viability, T/C (second compound 1 µM, first compound 0.0316 µM): 43.8%; viability, T/C (second compound 1 µM, first compound 0.1 µM): 38.8%; viability, T/C (second compound 1 µM, first compound 0.316 µM): 42.3%; viability, T/C (second compound 1 µM, first compound 1 µM): 30.9%; viability, T/C (second compound 1 µM, first compound 3.16 µM): 27.2%; viability, T/C (second compound 1 µM, first compound 10 µM): 11.6%; viability, T/C (second compound 3.16 µM, first compound 0.0316 µM): 41.4%; viability, T/C (second compound 3.16 µM, first compound 0.1 µM): 44.3%; viability, T/C (second compound 3.16 µM, first compound 0.316 µM): 41.4%; viability, T/C (second compound 3.16 µM, first compound 1 µM): 31.6%; viability, T/C (second compound 3.16 µM, first compound 3.16 µM): 22%; viability, T/C (second compound 3.16 µM, first compound 10 µM): 10.1%; viability, T/C (second compound 10 µM, first compound 0.0316 µM): 40.4%; viability, T/C (second compound 10 µM, first compound 0.1 µM): 34.4%; viability, T/C (second compound 10 µM, first compound 0.316 µM): 38.3%; viability, T/C (second compound 10 µM, first compound 1 µM): 27.9%; viability, T/C (second compound 10 µM, first compound 3.16 µM): 21.4%; viability, T/C (second compound 10 µM, first compound 10 µM): 8.93%

For `NC(=O)C(=Cn1cnc(-c2cc(C(F)(F)F)cc(C(F)(F)F)c2)n1)c1cncnc1` + CN1CCN(c2cc(C(=O)Nc3cc4cc(-c5cnn(C)c5)ccc4cn3)ccn2)CC1, which IC50 [1] is on record?
The IC50 was 220 nM.

And the IC50 [2]?
The IC50 was 103 nM.

What about the IC50 [3] of the same molecule?
The IC50 was less than 9.49 nM.

And the IC50 [4]?
Its IC50 is less than 9.49 nM.

What about the IC50 [5] of the same molecule?
The IC50 was less than 9.49 nM.

What about the IC50 [6] of the same molecule?
The IC50 was less than 9.49 nM.

What about the viability, T/C (second compound 0.0316 µM, first compound 0.00949 µM) of the same molecule?
The viability, T/C was 113%.

What about the viability, T/C (second compound 0.0316 µM, first compound 0.03 µM) of the same molecule?
The viability, T/C was 114%.

What about the viability, T/C (second compound 0.0316 µM, first compound 0.0949 µM) of the same molecule?
The viability, T/C was 74.5%.

What about the viability, T/C (second compound 0.0316 µM, first compound 0.3 µM) of the same molecule?
Its viability, T/C is 41.2%.

And the viability, T/C (second compound 0.0316 µM, first compound 0.949 µM)?
The viability, T/C was 19.1%.

And the viability, T/C (second compound 0.0316 µM, first compound 3 µM)?
The viability, T/C was 9.26%.

What about the viability, T/C (second compound 0.1 µM, first compound 0.00949 µM) of the same molecule?
The viability, T/C was 104%.

And the viability, T/C (second compound 0.1 µM, first compound 0.03 µM)?
Its viability, T/C is 80.3%.

What about the viability, T/C (second compound 0.1 µM, first compound 0.0949 µM) of the same molecule?
Its viability, T/C is 53.4%.

And the viability, T/C (second compound 0.1 µM, first compound 0.3 µM)?
The viability, T/C was 24.4%.

And the viability, T/C (second compound 0.1 µM, first compound 0.949 µM)?
Its viability, T/C is 9.65%.

What about the viability, T/C (second compound 0.1 µM, first compound 3 µM) of the same molecule?
Its viability, T/C is 2.06%.

And the viability, T/C (second compound 0.316 µM, first compound 0.00949 µM)?
Its viability, T/C is 13.1%.

And the viability, T/C (second compound 0.316 µM, first compound 0.03 µM)?
Its viability, T/C is 10.7%.

And the viability, T/C (second compound 0.316 µM, first compound 0.0949 µM)?
Its viability, T/C is 1.47%.

What about the viability, T/C (second compound 0.316 µM, first compound 0.3 µM) of the same molecule?
Its viability, T/C is 0.24%.

What about the viability, T/C (second compound 0.316 µM, first compound 0.949 µM) of the same molecule?
The viability, T/C was 0.92%.

And the viability, T/C (second compound 0.316 µM, first compound 3 µM)?
The viability, T/C was 2.69%.

What about the viability, T/C (second compound 1 µM, first compound 0.00949 µM) of the same molecule?
The viability, T/C was 0.11%.

And the viability, T/C (second compound 1 µM, first compound 0.03 µM)?
The viability, T/C was 0.13%.

What about the viability, T/C (second compound 1 µM, first compound 0.0949 µM) of the same molecule?
The viability, T/C was 1.63%.

And the viability, T/C (second compound 1 µM, first compound 0.3 µM)?
The viability, T/C was 0.1%.

What about the viability, T/C (second compound 1 µM, first compound 0.949 µM) of the same molecule?
Its viability, T/C is 0.37%.

And the viability, T/C (second compound 1 µM, first compound 3 µM)?
The viability, T/C was 0.09%.

What about the viability, T/C (second compound 3.16 µM, first compound 0.00949 µM) of the same molecule?
The viability, T/C was 0.08%.

What about the viability, T/C (second compound 3.16 µM, first compound 0.03 µM) of the same molecule?
The viability, T/C was 0.11%.

And the viability, T/C (second compound 3.16 µM, first compound 0.0949 µM)?
Its viability, T/C is 0.16%.

What about the viability, T/C (second compound 3.16 µM, first compound 0.3 µM) of the same molecule?
The viability, T/C was 0.13%.

What about the viability, T/C (second compound 3.16 µM, first compound 0.949 µM) of the same molecule?
Its viability, T/C is 0.13%.

And the viability, T/C (second compound 3.16 µM, first compound 3 µM)?
The viability, T/C was 2.73%.

And the viability, T/C (second compound 10 µM, first compound 0.00949 µM)?
Its viability, T/C is 0.1%.

And the viability, T/C (second compound 10 µM, first compound 0.03 µM)?
Its viability, T/C is 0.13%.

And the viability, T/C (second compound 10 µM, first compound 0.0949 µM)?
Its viability, T/C is 0.41%.

What about the viability, T/C (second compound 10 µM, first compound 0.3 µM) of the same molecule?
Its viability, T/C is 0.23%.

And the viability, T/C (second compound 10 µM, first compound 0.949 µM)?
The viability, T/C was 0.23%.

And the viability, T/C (second compound 10 µM, first compound 3 µM)?
Its viability, T/C is 1.29%.

How did the viability, T/C (compound 0.0316 µM) turn out when `CCCS(=O)(=O)Nc1ccc(F)c(C(=O)c2c[nH]c3ncc(-c4ccc(Cl)cc4)cc23)c1F` was run?
Its viability, T/C is 22.5% and 95.7%.

What about the viability, T/C (compound 0.1 µM) of the same molecule?
Its viability, T/C is 33.6% and 96.8%.

And the viability, T/C (compound 0.316 µM)?
The viability, T/C was 104% and 98.2%.

What about the viability, T/C (compound 1 µM) of the same molecule?
Its viability, T/C is 96% and 95.1%.

And the viability, T/C (compound 3.16 µM)?
Its viability, T/C is 29.5% and 104%.

What about the viability, T/C (compound 10 µM) of the same molecule?
Its viability, T/C is 0.01% and 24.1%.

What about the IC50 (curve of compound) of the same molecule?
Its IC50 is 1590 nM and 6690 nM.
